Results published in publication PMC7037732, “Synthesis of Combretastatin A-4 and 3′-Aminocombretastatin A-4 derivatives with Aminoacid Containing Pendants and Study of their Interaction with Tubulin and as Downregulators of the VEGF, hTERT and c-Myc Gene Expression” (Molecules, 2020).

Key:
VEGF gene = VEGF gene expression by RT-qPCR in HT-29 cells; assay type: cell-based, human
Protocol: (§1) The effect on the expression of VEGF, hTERT and c-Myc genes has been studied for CA-4 and its derivatives that show selectivity indexes higher than 0.9 on the HT-29 cell line. The studied derivatives, together with the concentrations to which they have been tested, are CA-4 (15 μM); 4.1 (Gly, 5 μM); 4.5 (L-Pro, 25 μM); 4.9 (L-Met, 25 μM); 6.2 (D-Leu, 25 μM); 6.3 (D-Phe, 25 μM); 6.4 (D-Pro, 25 μM) and 6.5 (D-Ser, 10 μM). The expression of the genes was determined by RT-qPCR methodology, as described in the Materials and Methods section.
(§2) As regards AmCA-4 derivatives, the effect on the expression of the VEGF, hTERT and c-Myc genes has been studied on those that show IC50 in the low nanomolar range on the HT-29 cell line and/or on compounds whose selectivity indexes with respect to this cell line are higher than 1. The studied compounds, together with the concentrations to which they have been tested, are: CA-4 (15 μM), AmCA-4 (15 nM), 7.1 (7 nM), 7.2 (1.5 nM), 7.3 (4 nM), 7.4 (15 nM), 7.5 (2 nM), 7.7 (7 nM), 7.8 (15 nM), 7.9 (30 nM), 8.1 (7 nM), 8.2 (3 nM), 8.3 (10 nM), 8.4 (1.5 nM), 8.5 (4 nM), 8.7 (7 nM), 8.8 (3 nM) and 8.9 (4 nM).
(§3) HT-29 cells at 70–80% confluence were collected, and 1.5 × 10^5 cells were placed in a six-well plate in 1.5 mL of the medium. After 24 h, cells were incubated with the corresponding compounds for 48 h. Cells were collected, and the total cellular RNA from the HT-29 cells was isolated using an Ambion RNA Extraction Kit, according to the manufacturer’s instructions. The cDNA was synthesized by MMLV-RT with […] of extracted RNA and oligo(dT)15, according to the manufacturer’s instructions. Genes were amplified by a thermal cycler and StepOnePlus™ TaqMan® probes. TaqMan® Gene Expression Master Mix Fast, containing the appropriate buffer for the amplification conditions, dNTPs, thermostable DNA polymerase enzyme and a passive reference probe, was used. To amplify each of the genes, the predesigned primers sold by Life Technologies TaqMan® Gene Expression Assays Hs99999903-m1 (β-actin), Hs00900055-m1 (VEGF), Hs00972646-m1 (hTERT) and Hs00153408-m1 (c-Myc) were used.

[1] = tested on: A-549 (human pulmonary adenocarcinoma); assay: Inhibition of cell proliferation (MTT), A-549; assay type: cell-based; conditions: Homo sapiens, A549, 48 h, 48 h of treatment (footnote), average ±SD of three experiments
Outline: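 Antiproliferative activity against A-549 human pulmonary adenocarcinoma cells was measured by MTT assay. Cells were seeded at 25,000/mL in 96-well plates, cultured 24 h, then exposed to compounds at various concentrations. MTT (20 µL, 5 mg·mL^−1) was added for 2 h at 37 °C, formazan dissolved in 200 µL DMSO, and absorbance read at 540 nm. IC50 values came graphically from three independent experiments.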

A-549 cells = assay: Cell cycle distribution by flow cytometry; assay type: cell-based, human; conditions: A-549, 24 h; for Effect on the cell cycle / cells accumulated in the G2/M phase: concentration per compound as in Tables 6 and 7; for cells accumulated in the G2/M phase: control 14%
Outline: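 A-549 cells were harvested, fixed in cold 70% ethanol (30 min, −20 °C), then stained with 50 µg/mL propidium iodide plus 100 µg/mL RNase A in PBS for 20 min at room temperature in the dark. Flow cytometry used 488 nm excitation and 620 nm emission, giving the percentage of cells in G2/M.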

hTERT gene = hTERT gene expression by RT-qPCR in HT-29 cells; assay type: cell-based, human
Protocol: as §1, §2, §3

[2] = Homo sapiens, HT-29, 48 h, 10 μM, control 100
[3] = Homo sapiens, HT-29, 48 h, 25 μM, control 100
[4] = Homo sapiens, HT-29, 48 h, 4 nM, control 100
[5] = Homo sapiens, HT-29, 48 h, 10 nM, control 100
[6] = Homo sapiens, HT-29, 48 h, 5 μM, control 100
[7] = Homo sapiens; HT-29, 48 h, 25 μM; control 100
[8] = Homo sapiens, HT-29, 48 h, 7 nM, control 100

Compound | IC50 ([1]; Table 1) [nM] | G0/G1 (A-549 cells; 75 μM) [%] | G2/M (A-549 cells; 75 μM) [%] | S (A-549 cells; 75 μM) [%] | Effect on the cell cycle (A-549 cells) | IC50 ([1]; Table 2) [nM] | G0/G1 (A-549 cells; 2 µM) [%] | G2/M (A-549 cells; 2 µM) [%] | S (A-549 cells; 2 µM) [%] | further results
COc1ccc(/C=C\c2cc(OC)c(OC)c(OC)c2)cc1OCC(=O)N[C@H](CO)C(=O)O [Compound 6.5] | > 150000 | 64 | 18 | 18 | do not exert any significant effect on the cells |  |  |  |  | mrna remaining at 10 µM (VEGF gene; [2]): 54%; mrna remaining at 10 µM (hTERT gene; [2]): 77%
COc1ccc(/C=C\c2cc(OC)c(OC)c(OC)c2)cc1OCC(=O)N1CCC[C@@H]1C(=O)O [Compound 6.4] | 95000 ± 14000 | 71 | 15 | 14 | do not exert any significant effect on the cells |  |  |  |  | mrna remaining at 25 µM (VEGF gene; [3]): 25%; mrna remaining at 25 µM (hTERT gene; [3]): 51%
COc1ccc(/C=C\c2cc(OC)c(OC)c(OC)c2)cc1NC(=O)[C@@H](N)Cc1ccccc1 [Compound 8.5] |  |  |  |  |  | 141 ± 3 |  |  |  | mrna remaining at 0.004 µM (VEGF gene; [4]): 37%; G0/G1 (A-549 cells; 0.5 µM): 46 ± 2%; G2/M (A-549 cells; 0.5 µM): 26 ± 10%; S (A-549 cells; 0.5 µM): 28 ± 11%; mrna remaining at 0.004 µM (hTERT gene; [4]): 98%
COc1ccc(/C=C\c2cc(OC)c(OC)c(OC)c2)cc1NC(=O)[C@@H](N)C(C)C [Compound 8.3] |  |  |  |  | do not accumulate a high percentage of cells in phase G2/M | 490 ± 100 | 65 ± 2 | 15 ± 2 | 20 ± 1 | mrna remaining at 0.01 µM (VEGF gene; [5]): 33%; mrna remaining at 0.01 µM (hTERT gene; [5]): < 70%
COc1ccc(/C=C\c2cc(OC)c(OC)c(OC)c2)cc1OCC(=O)NCC(=O)O [Compound 4.1] | 24000 ± 4000 | 68 | 20 | 12 | do not exert any significant effect on the cells |  |  |  |  | mrna remaining at 5 µM (VEGF gene; [6]): 45%; mrna remaining at 5 µM (hTERT gene; [6]): 56%
COc1ccc(/C=C\c2cc(OC)c(OC)c(OC)c2)cc1OCC(=O)N[C@H](C(=O)O)C(C)C [Compound 4.2] | 17000 ± 2000 |  |  |  |  |  |  |  |  | mrna remaining at 25 µM (VEGF gene; [7]): 89%; G0/G1 (A-549 cells; 50 μM): 17 ± 2%; G2/M (A-549 cells; 50 μM): 67 ± 4%; S (A-549 cells; 50 μM): 16 ± 3%; cells accumulated in the G2/M phase (A-549 cells): 50–70%; mrna remaining at 25 µM (hTERT gene; [7]): 82%
COc1ccc(/C=C\c2cc(OC)c(OC)c(OC)c2)cc1NC(=O)CN [Compound 8.1] |  |  |  |  |  | 400 ± 70 | 32 ± 5 | 46 ± 4 | 22 ± 2 | mrna remaining at 0.007 µM (VEGF gene; [8]): 24%; mrna remaining at 0.007 µM (hTERT gene; [8]): > 100%
COc1ccc(/C=C\c2cc(OC)c(OC)c(OC)c2)cc1NC(=O)[C@@H](N)C(C)O (stereo partly shown) [Compound 8.7] |  |  |  |  |  | 410 ± 40 | 31 ± 1 | 51 ± 2 | 18 ± 1 | downregulation of VEGF gene expression (VEGF gene; HT-29, 48 h; discussion; concentration per compound): more than 60%; mrna remaining at 0.007 µM (VEGF gene; [8]): 15%; cells accumulated in the G2/M phase (A-549 cells): more than 50%; mrna remaining at 0.007 µM (hTERT gene; [8]): 81%
COc1ccc(/C=C\c2cc(OC)c(OC)c(OC)c2)cc1NC(=O)[C@@H](N)CCSC [Compound 8.9] |  |  |  |  |  | 90 ± 30 |  |  |  | mrna remaining at 0.004 µM (VEGF gene; [4]): 48%; G0/G1 (A-549 cells; 0.2 µM): 30 ± 1%; G2/M (A-549 cells; 0.2 µM): 51 ± 2%; S (A-549 cells; 0.2 µM): 19 ± 1%; mrna remaining at 0.004 µM (hTERT gene; [4]): 71%
